In US20250179047A1, “5-[7-(3,4-DIHYDRO-1H-ISOQUINOLINE-2-CARBONYL)-1,2,3,4 TETRAHYDROISOQUINOLIN-6-YL]-1H-PYRROLE-3-CARBOXAMIDE DERIVATIVES, PHARMACEUTICAL COMPOSITIONS CONTAINING THEM AND THEIR USES AS PRO-APOPTOTIC AGENTS” (LES LABORATOIRES SERVIER, priority 2022, published 2025):
Like-named read-outs stand apart in the source and are kept apart here.

Legend:
BCL2 G101V [1] = target: BCL2 G101V (Homo sapiens, UniProt P10415, G101V); assay: TR-FRET competitive binding assay, BCL2 G101V; conditions: BCL2 G101V; Ki determined from IC50; read-out: TR_FRET EKI_Bcl2 G101V
Procedure, shortened: (§1)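 Terbium-labelled N-terminal Halo-fusion BCL2 or BCLXL (E. coli), 0.5 nM, competed against fluorescein-labelled PUMA peptide (2 or 20 nM) for 2 h at 23° C in 50 mM Hepes pH 7.5, 150 mM NaCl, 5% DMSO. TR-FRET 520/495 nm ratio gave IC50 by four-parameter fit; Ki derived from IC50.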

BCL2 G101V [2] = assay: TR-FRET competitive binding assay, BCL2 G101V; design: species or system human; conditions: for TR_FRET EKI G101V/WT selectivty ratio: ratio Ki BCL2 G101V / Ki BCL2 WT; for TR_FRET EKI G101V/WT selectivty: ratio of Ki BCL2 G101V to BCL2 WT
Procedure, shortened: as §1

KMS-12-PE Bcl-2 WT = assay: In vitro cytotoxicity CellTiter-Glo 48 h, KMS-12-PE Bcl-2 WT; assay type: cell-based; conditions: Homo sapiens, KMS-12-PE, C50 = concentration needed to reach 50% of the cellular viability
Procedure, shortened: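 Viability measured by CellTiter-Glo luminescence after 48 h compound exposure (11-point curve, 37 °C, 5% CO2). Cells: KMS-12-PE transduced with wild-type or G101V-mutant Bcl-2, FACS-sorted for TagRFP. Reported C50 = concentration reaching 50% cellular viability.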

BCL2 WT = BCL2 WT (Homo sapiens (Human), UniProt P10415); assay: TR-FRET competitive binding assay, BCL2 WT
Procedure, shortened: as §1

BCLXL WT = BCLXL WT (Homo sapiens (Human), UniProt Q07817); assay: TR-FRET competitive binding assay, BCLXL WT; conditions: for Ki: BCLXL WT, Ki determined from IC50, read-out: TR_FRET EKI BclxL; for TR_FRET EKI BCLxL/WT selectivty: ratio of Ki BCLxL to BCL2 WT
Procedure, shortened: as §1

BCL2 D103Y = BCL2 D103Y (Homo sapiens, UniProt P10415, D103Y); assay: TR-FRET competitive binding assay, BCL2 D103Y; conditions: Ki determined from IC50, read-out: TR_FRET EKI_Bcl2 D103Y
Procedure, shortened: as §1

KMS-12-PE Bcl-2 G101V = assay: In vitro cytotoxicity CellTiter-Glo 48 h, KMS-12-PE Bcl-2 G101V; assay type: cell-based; conditions: for Ratio (G101V/WT): C50 KMS-12-PE Bcl-2 G101V over C50 KMS-12-PE Bcl-2 WT; for IC50: Homo sapiens, KMS-12-PE, 48 h, CellTiter-Glo, C50 = concentration needed to reach 50% of the cellular viability
Description: KMS-12-PE (ACC 606) were purchased from the Leibniz-Institute DSMZ (Braunschweig, Germany) and were grown at 37° C. in a humidified atmosphere with […] in media recommended by the suppliers. Lentiviral particles containing Bcl-2 wild type (also named “Bcl2 WT”) and Bcl-2 mutated on G101V (also named “Bcl2 G101V”) were cloned into pcLV-CMV-DEST-IRES-TagRFP. Lentiviral particles (1×106) were mixed with Polybrene at 8 µg/ml and transduced by spinoculation for 1 h at 32° C. and incubated overnight. After 8 days, TagRFP positive-cells were sorted by FACS. BCL2 expression was monitored by immunoblotting using anti-Flag and anti-BCL2 antibodies.
Cellular viability was monitored with the cell viability assay (CellTiter-Glo®) on KMS-12-PE WT and G101V cell lines. The CellTiter-Glo® (CTG) Luminescent Cell Viability Assay (from Promega) is a homogeneous method to determine the number of viable cells in culture based on quantitation of the ATP present, which signals the presence of metabolically active cells.
Dose response of compounds are performed with 10 mM stock solutions (DMSO), 11-points curve, in a 384-well compound plate. The assay plate is prepared by stamping 40 nL from compound dilution plate of all different concentrations (e.g. 10 mM to have final […] assay test) into a cell culture microplate, using Echo acoustic liquid handling (Labcyte, Beckman). 40 μl of cell solution is added and cells are incubated with compounds for 48 h at 37° C., 5% CO2. CTG was added to the cells (according to the manufacturer instructions) and luminescence intensity was recorded using the Pherastar plate reader (BMG).
This assay provides in vitro cellular potency of the tested Bcl-2 inhibitors, measuring the C50, defined as the concentration needed to reach 50% of the cellular viability.

[3] = Ki determined from IC50, read-out: TR_FRET EKI_Bcl2 WT
[4] = Ki determined from IC50, read-out: TR_FRET EKI_Bcl2

Sequence of BCLXL WT (Q07817 other isoform, or with tags, fused parts or gaps): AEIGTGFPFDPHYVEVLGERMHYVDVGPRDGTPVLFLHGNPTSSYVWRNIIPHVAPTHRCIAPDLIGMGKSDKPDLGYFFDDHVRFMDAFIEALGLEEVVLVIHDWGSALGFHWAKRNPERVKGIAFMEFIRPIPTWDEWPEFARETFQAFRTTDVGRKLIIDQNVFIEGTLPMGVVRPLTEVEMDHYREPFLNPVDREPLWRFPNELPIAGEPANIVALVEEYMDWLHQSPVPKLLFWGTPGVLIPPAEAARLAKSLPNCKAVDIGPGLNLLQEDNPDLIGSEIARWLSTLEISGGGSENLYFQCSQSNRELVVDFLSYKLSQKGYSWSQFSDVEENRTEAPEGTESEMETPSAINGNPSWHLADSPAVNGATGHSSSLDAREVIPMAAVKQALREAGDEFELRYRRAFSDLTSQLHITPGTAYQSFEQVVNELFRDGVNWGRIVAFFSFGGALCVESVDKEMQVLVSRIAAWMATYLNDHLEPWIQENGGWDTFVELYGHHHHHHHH

SMILES | Ki (BCL2 G101V [1]) | TR_FRET EKI G101V/WT selectivty ratio (BCL2 G101V [2]) | Ki (BCL2 WT; [3]) | Ki (BCLXL WT) | TR_FRET EKI BCLxL/WT selectivty ratio (BCLXL WT; ratio Ki BCLxL / Ki BCL2 WT) | Ki (BCL2 D103Y) | TR_FRET EKI G101V/WT selectivty (BCL2 G101V [2]) | Ki (BCL2 WT; [4]) | TR_FRET EKI BCLxL/WT selectivty (BCLXL WT) | IC50 (KMS-12-PE Bcl-2 WT) | Ratio (G101V/WT) (KMS-12-PE Bcl-2 G101V) | IC50 (KMS-12-PE Bcl-2 G101V)
Cc1c(N(C(=O)c2cc(-c3cc4c(cc3C(=O)N3Cc5ccccc5C[C@H]3C)CN(C(=O)Cc3ccc([C@H]5C[C@@H]5N5CCOCC5)cc3F)CC4)n(C)c2C)c2ccc(O)cc2)cc(C#N)n1C (single isomer, unassigned) [Example 70, N-(5-cyano-1,2-dimethyl-pyrrol-3-yl)-5-[2-[2-[2-fluoro-4-[(1S,2R) or (1R,2S)-2-morpholinocyclopropyl]phenyl]acetyl]-7-[(3R)-3-methyl-3,4-dihydro-1H-isoquinoline-2-carbonyl]-3,4-dihydro-1H-isoquinolin-6-yl]-N-(4-hydroxyphenyl)-1,2-dimethyl-pyrrole-3-carboxamide] | 0.9 nM | 8.4 | 0.11 nM | 2.3 nM | 20.9 | 0.29 nM |  |  |  | 0.0076 µM | 8.32 | 0.0629 µM
Cc1c(N(C(=O)c2cc(-c3cc4c(cc3C(=O)N3Cc5ccccc5C[C@H]3C)CN(C(=O)Cc3ccccc3C#N)CC4)n(C)c2C)c2ccc(O)cc2)cc(C#N)n1C [Example 12, N-(5-cyano-1,2-dimethyl-1H-pyrrol-3-yl)-5-{2-[2-(2-cyanophenyl)acetyl]-7-[(3R)-3-methyl-1,2,3,4-tetrahydroisoquinoline-2-carbonyl]-1,2,3,4-tetrahydroisoquinolin-6-yl}-N-(4-hydroxyphenyl)-1,2-dimethyl-1H-pyrrole-3-carboxamide] | 1.7 nM | 7.7 | 0.22 nM |  |  | 0.4 nM |  |  |  | 0.0074 µM | 9.14 | 0.0676 µM
Cc1c(C(=O)N(c2ccccc2)c2cnn(C)c2)cc(-c2cc3c(cc2C(=O)N2Cc4ccccc4C[C@H]2C)CN(C(=O)Cc2ccc(OCCC4CCN(C)CC4)cc2)CC3)n1C [Example 237] | 0.52 nM |  |  | 1.7 nM |  | 0.057 nM | 16.3 | 0.032 nM | 53.1 | 0.007 µM |  | 
Cc1c(C(=O)N(c2ccccc2)c2cnn(C)c2)cc(-c2cc3c(cc2C(=O)N2Cc4ccccc4C[C@H]2C)CN(C(=O)Cc2ccc(OCCN(C)C)cc2F)CC3)n1C [Example 239] | 5.25 nM |  |  | 4.3 nM |  | 0.132 nM | 79.5 | 0.066 nM | 65.2 | 0.0128 µM |  | 
Cc1c(C(=O)N(c2ccccc2)c2cnn(C)c2)cc(-c2cc3c(cc2C(=O)N2Cc4ccccc4C[C@H]2CN2CCCCC2)CN(C(=O)Cc2ccc(OCCC4CCOCC4)cc2)CC3)n1C [Example 240] | 6.7 nM |  |  | 37.5 nM |  | 0.15 nM | 57.8 | 0.116 nM | 323 | 0.0446 µM |  | 
Cc1c(C(=O)N(c2ccccc2)c2cnn(C(F)F)c2)cc(-c2cc3c(cc2C(=O)N2Cc4ccccc4C[C@H]2CN2CCCCC2)CN(C(=O)Cc2ccc(OCCC4CCOCC4)cc2)CC3)n1C [Example 241] | 39.2 nM |  |  | 52.7 nM |  | 0.64 nM | 160.7 | 0.244 nM | 216 | 0.0586 µM |  | 

The next lines start with results.

Ki (BCL2 G101V [1]) | TR_FRET EKI G101V/WT selectivty ratio (BCL2 G101V [2]) | Ki (BCL2 WT; [3]) | Ki (BCLXL WT) | TR_FRET EKI BCLxL/WT selectivty ratio (BCLXL WT; ratio Ki BCLxL / Ki BCL2 WT) | Ki (BCL2 D103Y) | TR_FRET EKI G101V/WT selectivty (BCL2 G101V [2]) | Ki (BCL2 WT; [4]) | TR_FRET EKI BCLxL/WT selectivty (BCLXL WT) | SMILES | IC50 (KMS-12-PE Bcl-2 WT) | Ratio (G101V/WT) (KMS-12-PE Bcl-2 G101V) | IC50 (KMS-12-PE Bcl-2 G101V)
8.4 nM |  |  | 41.8 nM |  | 0.76 nM | 32.2 | 0.26 nM | 160.8 | Cc1c(C(=O)N(c2ccccc2)c2cc(F)cc(C#N)c2)cc(-c2cc3c(cc2C(=O)N2Cc4ccccc4C[C@H]2C)CN(C(=O)Cc2ccc(OCCN4CCOCC4)cc2)CC3)n1C [Example 226, N-(3-cyano-5-fluoro-phenyl)-1,2-dimethyl-5-[7-[(3R)-3-methyl-3,4-dihydro-1H-isoquinoline-2-carbonyl]-2-[2-[4-(2-morpholinoethoxy)phenyl]acetyl]-3,4-dihydro-1H-isoquinolin-6-yl]-N-phenyl-pyrrole-3-carboxamide] | 0.0365 µM |  | 
10.8 nM |  |  | 37.2 nM |  | 0.33 nM | 63.7 | 0.17 nM | 219.1 | Cc1c(C(=O)N(c2ccccc2)c2cc(F)cc(C#N)c2)cc(-c2cc3c(cc2C(=O)N2Cc4ccccc4C[C@H]2C)CN(C(=O)Cc2ccc(OCCN4CCOCC4)cc2F)CC3)n1C [Example 227, N-(3-cyano-5-fluoro-phenyl)-5-[2-[2-[2-fluoro-4-(2-morpholinoethoxy)phenyl]acetyl]-7-[(3R)-3-methyl-3,4-dihydro-1H-isoquinoline-2-carbonyl]-3,4-dihydro-1H-isoquinolin-6-yl]-1,2-dimethyl-N-phenyl-pyrrole-3-carboxamide] | 0.0254 µM |  | 
0.32 nM |  |  | 2.74 nM |  | 0.08 nM | 8.2 | 0.039 nM | 70.3 | Cc1c(C(=O)N(c2ccc(O)cc2)c2cnn(C)c2)cc(-c2cc3c(cc2C(=O)N2Cc4ccccc4C[C@H]2C)CN(C(=O)Cc2ccc(OCCN4CCOCC4)cc2F)CC3)n1C [Example 233] | 0.00694 µM |  | 
0.76 nM |  |  | 3.68 nM |  | 0.16 nM | 8.9 | 0.086 nM | 42.8 | Cc1c(N(C(=O)c2cc(-c3cc4c(cc3C(=O)N3Cc5ccccc5C[C@H]3C)CN(C(=O)Cc3ccc(OCCN5CCOCC5)cc3F)CC4)n(C)c2C)c2ccccc2)cc(C#N)n1C [Example 234] | 0.00221 µM |  | 
1.07 nM |  |  | 2.8 nM |  | 0.13 nM | 16.7 | 0.064 nM | 43.8 | Cc1c(C(=O)N(c2ccccc2)c2cnn(C(F)F)c2)cc(-c2cc3c(cc2C(=O)N2Cc4ccccc4C[C@H]2C)CN(C(=O)Cc2ccc(OCCC4CCN(C)CC4)cc2)CC3)n1C [Example 238] | 0.00907 µM |  | 
